Converted amounts (≈) assume the structure as drawn. Like-named read-outs stand apart in the source and are kept apart here.
Tests used:
[1] = system: Xcc cells membrane integrity; assay: Cellular membrane permeability of Xcc, Live/Dead BacLight kit; format: cell-based, Xanthomonas citri subsp. citri; details: compounds at ¼ MIC, 15 min; nisin as positive control
Procedure: Membrane integrity was measured by using the commercial assay Live/Dead BacLight® bacterial viability kit (Invitrogen, Carlsbad, CA, USA). We observed cells with intact membrane in fluorescent blue (SYTO 9) and cells with disturbance or affected membrane integrity in red or pink (propidium iodide). The data analyses were plotted as the percentage of cells permeated by propidium iodide (Figure 2).
Phase contrast microscopy was used to observe changes in cell shape and signs of cell division alteration using an objective lens with a magnification of 100×. To evaluate the Xcc cells’ membrane integrity, the BacLight® kit was used. Mixtures of SYTO 9 dyes and propidium iodide (PI). SYTO 9 (blue) can stain nucleic acids in general—with intact or damaged membranes. On the other hand, PI (red) penetrates only the bacteria with damaged membranes, causing overlap in the fluorescence of SYTO 9. Therefore, using a mixture of the dyes, the bacteria with disturbed cell membranes are stained in fluorescent red and the intact cell membranes are stained in fluorescent blue. […] Cellular immobilization was performed on slides containing 1% agarose gel in 0.85% saline buffer. The slides were prepared with 1.0 mL of the agarose solution, which was dispersed in optical microscopy slides and on each slide another slide was placed so that the gel continued like a thin film and was of homogeneous height. The slides were dried at room temperature for approximately 20 min and opened at the time of use, when 10 μL of the cell suspension was deposited in the center and covered with the cover slip. The cells were visualized using the Olympus BX-61 optical microscope equipped with OrcaFlash 2.8 monochrome camera (Hamamatsu, Shizuoka, Japan). Cell Sensation software v11 (Olympus) was used to document and analyze the images.

[2] = system: X. citri subsp. citri strain 306 (IBSBF 1594); details: anti-Xcc, previous study ref 25; cited from earlier work
[3] = system: X. citri subsp. citri strain 306 (IBSBF 1594); assay: MIC by Resazurin Microtiter Assay (REMA); format: cell-based, Xanthomonas citri subsp. citri; details: REMA, NYG medium, 29 °C, 12 h
Procedure: The antibacterial potential of carboxylic acids and their esters were compared to copper oxychloride (a commercial active often used to combat citrus canker). Minimal inhibitory concentration (MIC) values were determined by REMA assay, which measures cellular respiratory activity.
The antibacterial activity of alkyl dihydroxybenzoates and the determination of minimum inhibition concentration (MIC) were performed by the fluorimetric method Resazurin Microtiter Assay (REMA) with some modifications. An overnight culture of X. citri subsp. citri strain 306 (IBSBF 1594) was grown in 20 mL in Nitrogen Yeast Glycerol (NYG) at 29 °C in constant agitation of 180–200 rpm. After 12 h, the Xcc inoculum was dispersed in NYG medium and distributed into a 96 well microtiter plate to a final volume of 100 μL per well (10^5 CFU per well). Stock solutions of tested compounds at 10 mg mL^−1 were prepared in dimethyl sulfoxide (DMSO) and dispersed in NYG medium to obtain 1% DMSO and the final compound concentration range of 0.78–100 μg mL^−1. The negative control was constituted of 100 μL culture medium. In addition, the copper oxychloride was tested as a comparison to alkyl dihydroxybenzoates and kanamycin (20 μg mL^−1), which was used as a control antibiotic. The plate was subsequently incubated at 29 °C for 12 h, and 15 μg mL^−1 freshly prepared resazurin solution in water was added to each well, and the plate was incubated for 2 h. The fluorescence was determined on a Synergy H1 (BioTek, Winooski, VT, USA) microplate reader using the excitation and emission filters at wavelengths of 530 and 590 nm respectively. After the REMA assay, the minimum bactericidal concentration (CBM) assay was performed using a 96-pin stainless steel plate replicator, accurately transferring the wells from the REMA plate to Petri dishes Petri dishes were incubated in oven B.O.D. at 29 °C for 24 to 48 h. The experiments were performed in triplicate.

[4] = system: HaCaT (human keratinocyte cell line); assay: Cytotoxicity MTT assay, HaCaT; format: cell-based; details: MTT; for IC50: 24 h treatment, read-out: IC50 HaCaT
Procedure: (§1) This test is based on the reduction of 3-(4,5-dimethyl-2-thiazolyl)-2,5-diphenyl-2-tetrazole bromide by viable cells, with formation of violet insoluble formazan crystals. Five cell lines were used in order to evaluate the cytotoxic effect of the compounds as a whole.
(§2) The cytotoxicity of compounds 4, 16, 28 and copper oxychloride was determined by MTT assay. The cell lines used were HaCaT (human keratinocyte cell line—CLS 300493), Huh-7.5 (human hepatoma cell line—ATCC® PTA-8561), MRC-5 (human lung fibroblast cell line—ATCC CCL-171), VERO (monkey kidney epithelial cell line—ATCC® CCL81) and ACHN (human renal adenocarcinoma cell line—ATCC® CRL1611). The cells were cultured in appropriate medium recommended by the American Type Culture Collection.
(§3) The assay was performed with the concentration of 10^4 cells for both cell lines, distributed in 96-well plates and incubated at 37 °C in a 5% CO2 controlled atmosphere oven for 24 h. After the incubation period, the cells were treated with the compounds with a range of 1.56–200 μmol L^−1 and incubated for 24 h. The supernatant was removed, then 100 μL of 3-(4,5-dimethyl-2-thiazolyl)-2,5-diphenyl-2H-tetrazolium (MTT) salt at 1 mg mL^−1 diluted in DMEM medium (Gibco Life Technologies, Gaithersburg, MD, USA) was added and incubated for 30 min. Subsequently, the MTT was removed, then 100 μL of DMSO under agitation for 5 min at 60 rpm was added. The plates were read at 570 nm in a FLUOstar Omega/BMG LABTECH plate reader, Offenburg, BW, DE. We carried out the experiments in triplicate and three independent events for statistical analysis (GraphPad Software, San Diego, CA, USA). The MTT assay is based on the tetrazolium salt (yellow-colored) reduction to formazan (purple-colored) by metabolically active cells.

[5] = system: Huh-7.5 (human hepatoma cell line); assay: Cytotoxicity MTT assay, Huh-7.5; format: cell-based; details: MTT; for IC50: 24 h treatment, read-out: IC50 Huh-7,5
Procedure: as §1, §2, §3

[6] = system: MRC-5 (human lung fibroblast cell line); assay: Cytotoxicity MTT assay, MRC-5; format: cell-based; details: MTT; for IC50: 24 h treatment, read-out: IC50 MRC-5
Procedure: as §1, §2, §3

[7] = system: VERO (monkey kidney epithelial cell line); assay: Cytotoxicity MTT assay, VERO; format: cell-based; details: MTT; for IC50: 24 h treatment, read-out: IC50 VERO
Procedure: as §1, §2, §3

[8] = system: ACHN (human renal adenocarcinoma cell line); assay: Cytotoxicity MTT assay, ACHN; format: cell-based; details: MTT; for IC50: 24 h treatment, read-out: IC50 ACHN
Procedure: as §1, §2, §3

[9] = system: Xanthomonas citri subsp. citri; assay: Growth curve of Xcc (OD 600 nm); format: cell-based; details: MIC and ½ MIC, 72 h
Procedure: According to the growth curves of the positive control (PC) and vehicle control (DMSO), it was observed that Xcc reaches the maximum growth phase in a period of 15 h. […] The early growth inhibition (lag phase), which happens in the first hours of contact (period of the first cellular divisions) can be a dynamic process. […] This can be explained because the compounds have bacteriostatic action; that is, as the time passes, the cells become able to recover and restart doubling. Another important finding is that the lag phase consists in the cell adaptation to the new medium conditions and the bacterial population is smaller in relation to the exponential phase facilitates the action of the compounds in the first hours (Figure 1).
An isolated colony of Xanthomonas citri subsp. citri was inoculated in NYG medium for 12 h at 29 °C. After this, the optical density (OD 600 nm) was measured and adjusted to ~0.1. […] Optical density reading was measured on a Synergy H1-BioTek plate reader every 30 min for 72 h. The growth curves were plotted with GraphPad Prism software. At the same time, the degradation assay was performed, solubilizing the compounds in DMSO, which were later incorporated in NYG medium. Later, we scanned the compounds to measure the absorbance values from 210 to 700 nm, and the maximum lambda value of each compound was selected after scanning. After that, punctual readings were carried out every 30 min for 72 h.

[10] = 24 h, unit as in text for copper oxychloride

**Q.** For nisin [reference compound], which “percentage of cells permeated by propidium iodide” value [1] is on record?
**A.** 79.47%

**Q.** Which MIC [2] does the source give for `CCCCCCCOC(=O)c1cc(O)c(O)c(O)c1` [heptyl gallate] here?
**A.** 116 µM (≈ 31.1 µg/mL)

**Q.** For `NC[C@H]1O[C@H](O[C@H]2[C@H](O)[C@@H](O[C@H]3O[C@H](CO)[C@@H](O)[C@H](N)[C@H]3O)[C@H](N)C[C@@H]2N)[C@H](O)[C@@H](O)[C@@H]1O` [Kanamycin, kanamycin, reference compound], which MIC [3] is on record?
**A.** 19.9 µg/mL

**Q.** What about the MIC ([3]; read-out: MIC in μM) of the same molecule?
**A.** 40 µM

**Q.** What about the IC50 [4] of the same molecule?
**A.** > 200 µM

**Q.** What about the IC50 [5] of the same molecule?
**A.** > 200 µM

**Q.** What about the IC50 [6] of the same molecule?
**A.** > 200 µM

**Q.** And the IC50 [7]?
**A.** > 200 µM

**Q.** And the IC50 [8]?
**A.** > 200 µM

**Q.** Which MIC [3] does the source give for `[Cl-].[Cu+2].[Cu+2].[OH-].[OH-].[OH-]` [copper oxychloride, reference compound] here?
**A.** 43.1 µg/mL

**Q.** What about the “IC50 HaCaT” value [4, 10] of the same molecule?
**A.** above 200 μg mL^−1

**Q.** What about the IC50 [4] of the same molecule?
**A.** > 200 µM

**Q.** And the “IC50 Huh-7.5” value [5, 10]?
**A.** above 200 μg mL^−1

**Q.** And the IC50 [5]?
**A.** > 200 µM

**Q.** What about the “IC50 MRC-5” value [6, 10] of the same molecule?
**A.** above 200 μg mL^−1

**Q.** And the IC50 [6]?
**A.** > 200 µM

**Q.** And the “IC50 VERO” value [7, 10]?
**A.** above 200 μg mL^−1

**Q.** What about the IC50 [7] of the same molecule?
**A.** > 200 µM

**Q.** What about the “IC50 ACHN” value [8, 10] of the same molecule?
**A.** above 200 μg mL^−1

**Q.** And the IC50 [8]?
**A.** > 200 µM

**Q.** And the “effect on Xcc growth curve” value [9]?
**A.** inactive

— article PMC6213047, “Design of Antibacterial Agents: Alkyl Dihydroxybenzoates against Xanthomonas citri subsp. citri” (International Journal of Molecular Sciences, 2018)
